Laboratory results as given in US9725459B2, “3-oxo-tetrahydro-furo[3,2-B]pyrrol-4(5H)-yl) derivatives I” (GRÜNENTHAL GMBH, priority 2014, dated 2017).

Columns and labels:
Type in all cases: biochemical
human cathepsin L (CatL) = human cathepsin L (CatL) (Homo sapiens (Human), UniProt P07711); experiment: CatL functional enzyme assay; settings: read-out: hCatL, inhibition [%] at 31.6 μM
human cathepsin K (CatK) = human cathepsin K (CatK) (Homo sapiens (Human), UniProt P43235); experiment: CatK functional enzyme assay; settings: recombinant human CatK, substrate Z-FR-AMC 40 μM, pH 5.5; Ki by Cheng Prusoff equation; read-out: hCatK, Ki
Chain of human cathepsin K (CatK) (P43235 115-329): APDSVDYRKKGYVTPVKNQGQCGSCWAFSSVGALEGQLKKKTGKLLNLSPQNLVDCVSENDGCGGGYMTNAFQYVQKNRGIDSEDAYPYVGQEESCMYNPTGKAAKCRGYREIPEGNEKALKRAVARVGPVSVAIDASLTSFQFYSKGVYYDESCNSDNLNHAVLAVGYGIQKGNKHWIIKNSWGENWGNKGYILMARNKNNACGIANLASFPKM
Outline: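 Recombinant human enzymes in 50 mM NaOAc, 10 mM EDTA, 1 mM DTT, 0.01% Triton X-100, pH 5.5, 10 min at RT. CatK: 0.00175 mU/well with 40 μM Z-FR-AMC; CatL: 0.000874 mU/well with 40 μM Z-VVR-AMC. AMC fluorescence read; IC50 converted to Ki via Cheng–Prusoff.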

human cathepsin S (CatS) = human cathepsin S (CatS) (Homo sapiens (Human), UniProt P25774); experiment: CatS functional enzyme assay; settings: for Selectivity Ki(hCatS)/Ki(hCatK): ratio Ki(hCatS)/Ki(hCatK); for Ki: recombinant human CatS, substrate Z-VVR-AMC 5 μM, pH 6.5, Ki by Cheng Prusoff equation, read-out: hCatS, Ki
Chain of human cathepsin S (CatS) (P25774 115-331): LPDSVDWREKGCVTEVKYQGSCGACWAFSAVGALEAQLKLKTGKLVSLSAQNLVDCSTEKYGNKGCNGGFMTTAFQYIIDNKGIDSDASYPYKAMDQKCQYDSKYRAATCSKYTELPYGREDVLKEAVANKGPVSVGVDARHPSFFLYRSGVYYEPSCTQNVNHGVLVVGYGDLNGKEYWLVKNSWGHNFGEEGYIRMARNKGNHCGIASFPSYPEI
Outline: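 Recombinant human enzymes were incubated 10 min at RT with AMC substrate: CatS 0.0007 mU/well with Z-VVR-AMC 5 µM; CatK 0.00175 mU/well with Z-FR-AMC 40 µM; CatL 0.000874 mU/well with Z-VVR-AMC 40 µM. Fluorescence gave IC50, converted to Ki by Cheng-Prusoff.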

Chain of human cathepsin L (CatL) (P07711 114-333): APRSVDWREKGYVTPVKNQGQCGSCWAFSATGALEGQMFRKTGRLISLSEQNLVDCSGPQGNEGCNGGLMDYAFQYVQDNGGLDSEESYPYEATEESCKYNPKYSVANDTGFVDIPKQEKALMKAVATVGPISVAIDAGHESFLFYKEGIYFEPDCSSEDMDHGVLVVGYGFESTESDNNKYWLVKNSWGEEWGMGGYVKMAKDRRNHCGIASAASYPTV

Compound: O=C(N[C@H](C(=O)N1C[C@H](Cl)[C@H]2OCC(=O)[C@H]21)C1CCCCC1)c1ccc(-c2cccnn2)o1 [Example 20, N-((S)-2-((3aS,6S,6aS)-6-chloro-3-oxotetrahydro-2H-furo[3,2-b]pyrrol-4(5H)-yl)-1-cyclohexyl-2-oxoethyl)-5-(pyridazin-3-yl)furan-2-carboxamide]
- inhibition at 31.6 µM (human cathepsin L (CatL)): 16%
- Ki (human cathepsin K (CatK)): 225 nM
- Selectivity Ki(hCatS)/Ki(hCatK) (human cathepsin S (CatS)): 3.2
- Ki (human cathepsin S (CatS)): 727 nM

Compound: COc1cc(-c2ccc(C(=O)N[C@H](C(=O)N3C[C@H](Cl)[C@H]4OCC(=O)[C@H]43)C3CCCCC3)s2)ccn1 [Example 56, N-((S)-2-((3aS,6S,6aS)-6-chloro-3-oxotetrahydro-2H-furo[3,2-b]pyrrol-4(5H)-yl)-1-cyclohexyl-2-oxoethyl)-5-(2-methoxypyridin-4-yl)thiophene-2-carboxamide]
- inhibition at 31.6 µM (human cathepsin L (CatL)): 20%
- Ki (human cathepsin K (CatK)): 6 nM
- Selectivity Ki(hCatS)/Ki(hCatK) (human cathepsin S (CatS)): 16.6
- Ki (human cathepsin S (CatS)): 92 nM

Compound: O=C(N[C@H](C(=O)N1C[C@H](Cl)[C@H]2OCC(=O)[C@H]21)C1CCCCC1)c1cnc(-c2cccnc2)s1 [Example 13, N-((S)-2-((3aS,6S,6aS)-6-chloro-3-oxotetrahydro-2H-furo[3,2-b]pyrrol-4(5H)-yl)-1-cyclohexyl-2-oxoethyl)-2-(pyridin-3-yl)thiazole-5-carboxamide]
- inhibition at 31.6 µM (human cathepsin L (CatL)): 16%
- Ki (human cathepsin K (CatK)): 29 nM
- inhibition at 10 µM (human cathepsin S (CatS); read-out: hCatS, inhibition [%] at 10 μM): 73%

Compound: Cc1ccc(-c2ccc(C(=O)N[C@H](C(=O)N3C[C@H](Cl)[C@H]4OCC(=O)[C@H]43)C3CCCCC3)s2)nn1 [Example 35, N-((S)-2-((3aS,6S,6aS)-6-chloro-3-oxotetrahydro-2H-furo[3,2-b]pyrrol-4(5H)-yl)-1-cyclohexyl-2-oxoethyl)-5-(6-methylpyridazin-3-yl)thiophene-2-carboxamide]
- inhibition at 31.6 µM (human cathepsin L (CatL)): 23%
- Ki (human cathepsin K (CatK)): 16 nM
- Selectivity Ki(hCatS)/Ki(hCatK) (human cathepsin S (CatS)): 10.7
- Ki (human cathepsin S (CatS)): 172 nM

Compound: Cc1ncc(-c2ccc(C(=O)N[C@H](C(=O)N3C[C@H](Cl)[C@H]4OCC(=O)[C@H]43)C3CCCCC3)s2)cn1 [Example 30, N-((S)-2-((3aS,6S,6aS)-6-chloro-3-oxotetrahydro-2H-furo[3,2-b]pyrrol-4(5H)-yl)-1-cyclohexyl-2-oxoethyl)-5-(2-methylpyrimidin-5-yl)thiophene-2-carboxamide]
- inhibition at 31.6 µM (human cathepsin L (CatL)): 28%
- Ki (human cathepsin K (CatK)): 10 nM
- Selectivity Ki(hCatS)/Ki(hCatK) (human cathepsin S (CatS)): 7.2
- Ki (human cathepsin S (CatS)): 72 nM

Compound: O=C(N[C@H](C(=O)N1C[C@H](Cl)[C@H]2OCC(=O)[C@H]21)C1CCCCC1)c1sc(-c2ccnnc2)cc1F [Example 60, N-((S)-2-((3aS,6S,6aS)-6-chloro-3-oxotetrahydro-2H-furo[3,2-b]pyrrol-4(5H)-yl)-1-cyclohexyl-2-oxoethyl)-3-fluoro-5-(pyridazin-4-yl)thiophene-2-carboxamide]
- inhibition at 31.6 µM (human cathepsin L (CatL)): 11%
- Ki (human cathepsin K (CatK)): 104 nM
- Selectivity Ki(hCatS)/Ki(hCatK) (human cathepsin S (CatS)): 2.3
- Ki (human cathepsin S (CatS)): 238 nM

Compound: C[S+]([O-])c1cnnc(-c2ccc(C(=O)N[C@H](C(=O)N3C[C@H](Cl)[C@H]4OCC(=O)[C@H]43)C3CCCCC3)s2)c1 (stereo partly drawn) [Example 76, N-((S)-2-((3aS,6S,6aS)-6-chloro-3-oxotetrahydro-2H-furo[3,2-b]pyrrol-4(5H)-yl)-1-cyclohexyl-2-oxoethyl)-5-(5-(methylsulfinyl)pyridazin-3-yl)thiophene-2-carboxamide]
- inhibition at 31.6 µM (human cathepsin L (CatL)): 19%
- Ki (human cathepsin K (CatK)): 30 nM
- Selectivity Ki(hCatS)/Ki(hCatK) (human cathepsin S (CatS)): 1.0
- Ki (human cathepsin S (CatS)): 29 nM

Compound: O=C(N[C@H](C(=O)N1C[C@H](Cl)[C@H]2OCC(=O)[C@H]21)C1CCCCC1)c1ccc(-c2ncccn2)s1 [Example 9, N-((S)-2-((3aS,6S,6aS)-6-chloro-3-oxotetrahydro-2H-furo[3,2-b]pyrrol-4(5H)-yl)-1-cyclohexyl-2-oxoethyl)-5-(pyrimidin-2-yl)thiophene-2-carboxamide]
- inhibition at 31.6 µM (human cathepsin L (CatL)): 4%
- Ki (human cathepsin K (CatK)): 18 nM
- Selectivity Ki(hCatS)/Ki(hCatK) (human cathepsin S (CatS)): 81.7
- Ki (human cathepsin S (CatS)): 1470 nM

Compound: O=C(N[C@H](C(=O)N1C[C@H](Cl)[C@H]2OCC(=O)[C@H]21)C1CCCCC1)c1sc(-c2cccnc2)cc1F [Example 65, N-((S)-2-((3aS,6S,6aS)-6-chloro-3-oxotetrahydro-2H-furo[3,2-b]pyrrol-4(5H)-yl)-1-cyclohexyl-2-oxoethyl)-3-fluoro-5-(pyridin-3-yl)thiophene-2-carboxamide]
- inhibition at 31.6 µM (human cathepsin L (CatL)): 5%
- Ki (human cathepsin K (CatK)): 551 nM
- Selectivity Ki(hCatS)/Ki(hCatK) (human cathepsin S (CatS)): 1.2
- Ki (human cathepsin S (CatS)): 646 nM

Compound: O=C(N[C@H](C(=O)N1C[C@H](Cl)[C@H]2OCC(=O)[C@H]21)C1CCCCC1)c1ncc(-c2ccc(Cl)nc2)s1 [Example 52, N-((S)-2-((3aS,6S,6aS)-6-chloro-3-oxotetrahydro-2H-furo[3,2-b]pyrrol-4(5H)-yl)-1-cyclohexyl-2-oxoethyl)-5-(6-chloropyridin-3-yl)thiazole-2-carboxamide]
- inhibition at 31.6 µM (human cathepsin L (CatL)): 7%
- Ki (human cathepsin K (CatK)): 14 nM
- Selectivity Ki(hCatS)/Ki(hCatK) (human cathepsin S (CatS)): 14.5
- Ki (human cathepsin S (CatS)): 203 nM

Compound: Cc1cc(-c2ccc(C(=O)N[C@H](C(=O)N3C[C@H](Cl)[C@H]4OCC(=O)[C@H]43)C3CCCCC3)s2)cnn1 [Example 69, N-((S)-2-((3aS,6S,6aS)-6-chloro-3-oxotetrahydro-2H-furo[3,2-b]pyrrol-4(5H)-yl)-1-cyclohexyl-2-oxoethyl)-5-(6-methylpyridazin-4-yl)thiophene-2-carboxamide]
- inhibition at 31.6 µM (human cathepsin L (CatL)): 24%
- Ki (human cathepsin K (CatK)): 8 nM
- Selectivity Ki(hCatS)/Ki(hCatK) (human cathepsin S (CatS)): 1.1
- Ki (human cathepsin S (CatS)): 9 nM

Compound: CCc1cnnc(-c2ccc(C(=O)N[C@H](C(=O)N3C[C@H](Cl)[C@H]4OCC(=O)[C@H]43)C3CCCCC3)s2)c1 [Example 73, N-((S)-2-((3aS,6S,6aS)-6-chloro-3-oxotetrahydro-2H-furo[3,2-b]pyrrol-4(5H)-yl)-1-cyclohexyl-2-oxoethyl)-5-(5-ethylpyridazin-3-yl)thiophene-2-carboxamide]
- inhibition at 31.6 µM (human cathepsin L (CatL)): 26%
- Ki (human cathepsin K (CatK)): 15 nM
- Selectivity Ki(hCatS)/Ki(hCatK) (human cathepsin S (CatS)): 0.9
- Ki (human cathepsin S (CatS)): 13 nM

Compound: O=C(N[C@H](C(=O)N1C[C@H](Cl)[C@H]2OCC(=O)[C@H]21)C1CCCCC1)c1sc(-c2cccnn2)cc1F [Example 59, N-((S)-2-((3aS,6S,6aS)-6-chloro-3-oxotetrahydro-2H-furo[3,2-b]pyrrol-4(5H)-yl)-1-cyclohexyl-2-oxoethyl)-3-fluoro-5-(pyridazin-3-yl)thiophene-2-carboxamide]
- inhibition at 31.6 µM (human cathepsin L (CatL)): 0%
- Ki (human cathepsin K (CatK)): 118 nM
- Selectivity Ki(hCatS)/Ki(hCatK) (human cathepsin S (CatS)): 6.2
- Ki (human cathepsin S (CatS)): 726 nM

Compound: O=C(N[C@H](C(=O)N1C[C@H](Cl)[C@H]2OCC(=O)[C@H]21)C1CCCCC1)c1ncc(-c2cccnn2)s1 [Example 15, N-((S)-2-((3aS,6S,6aS)-6-chloro-3-oxotetrahydro-2H-furo[3,2-b]pyrrol-4(5H)-yl)-1-cyclohexyl-2-oxoethyl)-5-(pyridazin-3-yl)thiazole-2-carboxamide]
- inhibition at 31.6 µM (human cathepsin L (CatL)): 12%
- Ki (human cathepsin K (CatK)): 25 nM
- Selectivity Ki(hCatS)/Ki(hCatK) (human cathepsin S (CatS)): 7.7
- Ki (human cathepsin S (CatS)): 193 nM
